In patent publication US20020137929A1, “1 - (3-heterocyclylphenyl) isothiourea, -isourea, -guanidine and -amidine herbicidal agents” (Intellectual Property Department, BASF Aktiengesellschaft, priority 1998, published 2002):

Legend:
[1] = tested on: CHEAL (Lambsquarters, Common); test: Postemergence herbicidal evaluation; type: in vivo, Chenopodium album; settings: postemergence
Procedure, shortened: (§1)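 ~2-wk seedlings; postemergence spray, 40 psi; vehicle 1:1 acetone:water + 0.5% Tween 20; rate ≈0.0156–0.500 kg/ha; greenhouse hold; scored 4–5 wk after treatment, 0–9 scale vs control; repeat tests averaged.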

[2] = tested on: GALAP (Galium); test: Preemergence herbicidal evaluation; type: in vivo, Galium aparine; settings: rated 4-5 weeks after treatment
Procedure, shortened: (§2)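 Seeds were mixed with potting soil and planted on about one inch of soil, then sprayed with test compound in aqueous acetone at about 0.0156 to 0.500 kg per hectare. Plants grew under standard greenhouse care and were visually rated 0-9 against untreated controls 4-5 weeks post-treatment.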

[3] = tested on: CYPIR (Rice Flatsedge); test: Preemergence weed control under flooded paddy conditions; type: in vivo, Cyperus iria; settings: rated 3-4 weeks after treatment
Procedure, shortened: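 Flooded-pot preemergence screen with silt loam and seeds in the upper 0.5 cm. Dose about 0.0313 to 0.500 kg/ha, delivered into flood water; visual 0-9 score after 3 to 4 weeks.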

[4] = tested on: SAGPY (Arrowhead (Pygmaea)); test: as above; type: in vivo, Sagittaria pygmaea; settings: rated 3-4 weeks after treatment
Procedure, shortened: (§3)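 Greenhouse paddy assay. Acetone/water (50/50 v/v) solutions dosed into flood water, equivalent to about 0.0313 to 0.500 kg/ha active ingredient, over seeds planted 0.5 cm deep in silt loam. Score: 0-9 visual, based on stand, vigor, malformation, size and chlorosis, 3 to 4 weeks after treatment.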

[5] = tested on: ECHCG (Barnyardgrass); test: Postemergence herbicidal evaluation; type: in vivo, Echinochloa crus-galli; settings: postemergence
Procedure, shortened: as §1

[6] = tested on: TRZAWR (Wheat, Winter, cv Riband); test: Preemergence herbicidal evaluation; type: in vivo, Triticum aestivum; settings: rated 4-5 weeks after treatment
Procedure, shortened: as §2

[7] = tested on: SETVI (Foxtail, Green); test: Preemergence herbicidal evaluation; type: in vivo, Setaria viridis; settings: rated 4-5 weeks after treatment
Procedure, shortened: as §2

[8] = tested on: ORYSAT (Rice, Tebonnet); test: Preemergence herbicidal evaluation; type: in vivo, Oryza sativa, (L.) Tebonnet; settings: rated 4-5 weeks after treatment
Procedure, shortened: as §2

[9] = tested on: ORYSAT (Rice, Tebonnet); test: Postemergence herbicidal evaluation; type: in vivo, Oryza sativa, (L.) Tebonnet; settings: postemergence
Procedure, shortened: as §1

[10] = tested on: CASOB (Sicklepod); test: Postemergence herbicidal evaluation; type: in vivo, Cassia obtusifolia; settings: postemergence
Procedure, shortened: as §1

[11] = tested on: ZEAMX (Corn, Field); test: Preemergence herbicidal evaluation; type: in vivo, Zea mays; settings: rated 4-5 weeks after treatment
Procedure, shortened: as §2

[12] = tested on: GLXMAW (Soybean, Williams); test: Preemergence herbicidal evaluation; type: in vivo, Glycine max, (L.) Merr. cv Williams; settings: rated 4-5 weeks after treatment
Procedure, shortened: as §2

[13] = tested on: MOOVA (Monochoria); test: Preemergence weed control under flooded paddy conditions; type: in vivo, Monochoria vaginalis; settings: rated 3-4 weeks after treatment
Procedure, shortened: as §3

## CCOC(=O)CN1C(=O)C(SC)SC1=Nc1cc(-n2c(=O)cc(C(F)(F)F)n(C)c2=O)c(F)cc1Cl (stereo not drawn) [Compound 125, Ethyl 2-{{2-chloro-5-[3,6-dihydro-3-methyl-2,6-dioxo-4-(trifluoromethyl)-1(2H)-pyrimidinyl]-4-fluorophenyl}imino}-5-(methylthio)-4-oxo-3-thiazolidineacetate]
[1]; rate 0.0156 kg/ha
  herbicidal rating CHEAL: 3.0
[1]; rate 0.0313 kg/ha
  herbicidal rating CHEAL: 9.0
[1]; rate 0.0625 kg/ha
  herbicidal rating CHEAL: 9.0
[2]; rate 0.0156 kg/ha
  Preemergence herbicidal rating GALAP: 0.0
[2]; rate 0.0313 kg/ha
  Preemergence herbicidal rating GALAP: 0.0
[2]; rate 0.0625 kg/ha
  Preemergence herbicidal rating GALAP: 0.0
[2]; rate 0.1250 kg/ha
  Preemergence herbicidal rating GALAP: 1.0
[2]; rate 0.2500 kg/ha
  Preemergence herbicidal rating GALAP: 7.0
[2]; rate 0.5000 kg/ha
  Preemergence herbicidal rating GALAP: 9.0
[3]; 0.0313 kg/ha
  herbicidal effect rating, CYPIR: 3.0
[3]; 0.0625 kg/ha
  herbicidal effect rating, CYPIR: 6.0
[3]; 0.1250 kg/ha
  herbicidal effect rating, CYPIR: 7.0
[3]; 0.2500 kg/ha
  herbicidal effect rating, CYPIR: 9.0
[4]; 0.0313 kg/ha
  herbicidal effect rating, SAGPY: 3.0
[4]; 0.0625 kg/ha
  herbicidal effect rating, SAGPY: 4.0
[4]; 0.1250 kg/ha
  herbicidal effect rating, SAGPY: 4.0
[4]; 0.2500 kg/ha
  herbicidal effect rating, SAGPY: 9.0
[5]; rate 0.0156 kg/ha
  herbicidal rating ECHCG: 1.0
[5]; rate 0.0313 kg/ha
  herbicidal rating ECHCG: 2.0
[5]; rate 0.0625 kg/ha
  herbicidal rating ECHCG: 3.0
[6]; rate 0.0156 kg/ha
  Preemergence herbicidal rating TRZAWR: 0.0
[6]; rate 0.0313 kg/ha
  Preemergence herbicidal rating TRZAWR: 0.0
[6]; rate 0.0625 kg/ha
  Preemergence herbicidal rating TRZAWR: 1.0
[6]; rate 0.1250 kg/ha
  Preemergence herbicidal rating TRZAWR: 1.0
[6]; rate 0.2500 kg/ha
  Preemergence herbicidal rating TRZAWR: 4.0
[6]; rate 0.5000 kg/ha
  Preemergence herbicidal rating TRZAWR: 5.0
[7]; rate 0.0156 kg/ha
  Preemergence herbicidal rating SETVI: 0.0
[7]; rate 0.0313 kg/ha
  Preemergence herbicidal rating SETVI: 0.0
[7]; rate 0.0625 kg/ha
  Preemergence herbicidal rating SETVI: 5.0
[7]; rate 0.1250 kg/ha
  Preemergence herbicidal rating SETVI: 9.0
[7]; rate 0.2500 kg/ha
  Preemergence herbicidal rating SETVI: 9.0
[7]; rate 0.5000 kg/ha
  Preemergence herbicidal rating SETVI: 9.0
[8]; rate 0.0156 kg/ha
  Preemergence herbicidal rating ORYSAT: 0.0
[8]; rate 0.0313 kg/ha
  Preemergence herbicidal rating ORYSAT: 0.0
[8]; rate 0.0625 kg/ha
  Preemergence herbicidal rating ORYSAT: 1.0
[8]; rate 0.1250 kg/ha
  Preemergence herbicidal rating ORYSAT: 1.0
[8]; rate 0.2500 kg/ha
  Preemergence herbicidal rating ORYSAT: 4.0
[8]; rate 0.5000 kg/ha
  Preemergence herbicidal rating ORYSAT: 4.0
[9]; rate 0.0156 kg/ha
  herbicidal rating ORYSAT: 3.3
[9]; rate 0.0313 kg/ha
  herbicidal rating ORYSAT: 4.0
[9]; rate 0.0625 kg/ha
  herbicidal rating ORYSAT: 3.7
[10]; rate 0.0156 kg/ha
  herbicidal rating CASOB: 1.0
[10]; rate 0.0313 kg/ha
  herbicidal rating CASOB: 2.0
[10]; rate 0.0625 kg/ha
  herbicidal rating CASOB: 2.0
[11]; rate 0.0156 kg/ha
  Preemergence herbicidal rating ZEAMX: 0.0
[11]; rate 0.0313 kg/ha
  Preemergence herbicidal rating ZEAMX: 0.0
[11]; rate 0.0625 kg/ha
  Preemergence herbicidal rating ZEAMX: 3.0
[11]; rate 0.1250 kg/ha
  Preemergence herbicidal rating ZEAMX: 6.0
[11]; rate 0.2500 kg/ha
  Preemergence herbicidal rating ZEAMX: 7.0
[11]; rate 0.5000 kg/ha
  Preemergence herbicidal rating ZEAMX: 7.0
[12]; rate 0.0156 kg/ha
  Preemergence herbicidal rating GLXMAW: 0.0
[12]; rate 0.0313 kg/ha
  Preemergence herbicidal rating GLXMAW: 0.0
[12]; rate 0.0625 kg/ha
  Preemergence herbicidal rating GLXMAW: 0.0
[12]; rate 0.1250 kg/ha
  Preemergence herbicidal rating GLXMAW: 3.0
[12]; rate 0.2500 kg/ha
  Preemergence herbicidal rating GLXMAW: 4.0
[12]; rate 0.5000 kg/ha
  Preemergence herbicidal rating GLXMAW: 7.0
[13]; 0.0313 kg/ha
  herbicidal effect rating, MOOVA: 5.0
[13]; 0.0625 kg/ha
  herbicidal effect rating, MOOVA: 7.0
[13]; 0.1250 kg/ha
  herbicidal effect rating, MOOVA: 7.0
[13]; 0.2500 kg/ha
  herbicidal effect rating, MOOVA: 9.0
